Earlier results, collected in publication PMC3483082 (Chembiochem : a European journal of chemical biology, 2012).

Columns and labels:
CDK2 = details: read-out: IC50 (CDK2 inhibitor)
CDK1 = details: read-out: IC50 CDK1

SMILES	IC50 (CDK2)	IC50 (CDK1)
CCN(CC)CCNC(=O)c1c(C)[nH]c(/C=C2\C(=O)Nc3ccc(F)cc32)c1C [Hit 1, sunitinib]		2600 nM
